# Results as given in PubChem BioAssay AID1963850 (Molecular Pharmacology Branch, DTP, NCI, 2024).
# Test system: 192522-019-R-J2-PDC complex tumor spheroid viability
# Experiment: Anticancer human tumor 192522-019-R-J2-PDC patient-derived colon adenocarcinoma cell line growth inhibition [POLQ]
# Conditions: for IC50: curve of first compound; for viability, T/C: stronger effect = lower value
# In short: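 Three-cell-type spheroids modelling solid tumor plus stroma served as the readout system; POL inhibitors were tested individually and in combination, concentration ranges set by clinical Cmax where known.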
# [1] = second compound 0.0316 µM, first compound 0.0316 µM
# [2] = second compound 0.0316 µM, first compound 0.1 µM
# [3] = second compound 0.0316 µM, first compound 0.316 µM
# [4] = second compound 0.0316 µM, first compound 1 µM
# [5] = second compound 0.1 µM, first compound 0.0316 µM
# [6] = second compound 0.1 µM, first compound 0.1 µM
# [7] = second compound 0.1 µM, first compound 0.316 µM
# [8] = second compound 0.1 µM, first compound 1 µM
# [9] = second compound 0.316 µM, first compound 0.0316 µM
# [10] = second compound 0.316 µM, first compound 0.1 µM
# [11] = second compound 0.316 µM, first compound 0.316 µM
# [12] = second compound 0.316 µM, first compound 1 µM
# [13] = second compound 1 µM, first compound 0.0316 µM
# [14] = second compound 1 µM, first compound 0.1 µM
# [15] = second compound 1 µM, first compound 0.316 µM
# [16] = second compound 1 µM, first compound 1 µM
# [17] = second compound 3.16 µM, first compound 0.0316 µM
# [18] = second compound 3.16 µM, first compound 0.1 µM
# [19] = second compound 3.16 µM, first compound 0.316 µM
# [20] = second compound 3.16 µM, first compound 1 µM
# [21] = second compound 10 µM, first compound 0.0316 µM
# [22] = second compound 10 µM, first compound 0.1 µM
# [23] = second compound 10 µM, first compound 0.316 µM
# [24] = second compound 10 µM, first compound 1 µM
# 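Further: spheroids exposed to drugs for seven days before reading.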
# 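Wherever viability, T/C is given: 100% = DMSO vehicle control viability in luminescence.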
smiles,measurement,setting,value
CCc1c2c(nc3ccc(O)cc13)-c1cc3c(c(=O)n1C2)COC(=O)[C@]3(O)CC + Nc1ccc(C#CCN(C(=O)Cc2ncc(C(F)(F)F)cc2C(F)(F)F)c2ccc(F)cc2)nn1,IC50,second compound 0.0316 µM,0.232 µM
same,IC50,second compound 0.1 µM,0.176 µM
same,IC50,second compound 0.316 µM,0.204 µM
same,IC50,second compound 1 µM,0.129 µM
same,IC50,second compound 3.16 µM,0.16 µM
same,IC50,second compound 10 µM,0.111 µM
same,"viability, T/C","second compound 0.0316 µM, first compound 0.00316 µM",92.1%
same,"viability, T/C","second compound 0.0316 µM, first compound 0.01 µM",75.4%
same,"viability, T/C",[1],70.3%
same,"viability, T/C",[2],62.1%
same,"viability, T/C",[3],44.2%
same,"viability, T/C",[4],35.7%
same,"viability, T/C","second compound 0.1 µM, first compound 0.00316 µM",94.8%
same,"viability, T/C","second compound 0.1 µM, first compound 0.01 µM",77.6%
same,"viability, T/C",[5],78.6%
same,"viability, T/C",[6],60%
same,"viability, T/C",[7],38.1%
same,"viability, T/C",[8],31%
same,"viability, T/C","second compound 0.316 µM, first compound 0.00316 µM",99%
same,"viability, T/C","second compound 0.316 µM, first compound 0.01 µM",76.2%
same,"viability, T/C",[9],78.8%
same,"viability, T/C",[10],57%
same,"viability, T/C",[11],43.5%
same,"viability, T/C",[12],31.9%
same,"viability, T/C","second compound 1 µM, first compound 0.00316 µM",103%
same,"viability, T/C","second compound 1 µM, first compound 0.01 µM",71.5%
same,"viability, T/C",[13],69.8%
same,"viability, T/C",[14],57.6%
same,"viability, T/C",[15],36.4%
same,"viability, T/C",[16],31%
same,"viability, T/C","second compound 3.16 µM, first compound 0.00316 µM",96.9%
same,"viability, T/C","second compound 3.16 µM, first compound 0.01 µM",79.8%
same,"viability, T/C",[17],72.5%
same,"viability, T/C",[18],56%
same,"viability, T/C",[19],39.4%
same,"viability, T/C",[20],36.5%
same,"viability, T/C","second compound 10 µM, first compound 0.00316 µM",94%
same,"viability, T/C","second compound 10 µM, first compound 0.01 µM",76.7%
same,"viability, T/C",[21],71.5%
same,"viability, T/C",[22],50.6%
same,"viability, T/C",[23],36.2%
same,"viability, T/C",[24],34.4%
C=CC(=O)N1CCN(c2nc(=O)n(-c3c(C)ccnc3C(C)C)c3nc(-c4c(O)cccc4F)c(F)cc23)C(C)C1 (centres undefined) + Cc1cccc(N(C)C(=O)C2C(O)CCN2c2nc(C)cc(C(F)(F)F)c2C#N)c1,IC50,second compound 0.0316 µM,> 10 µM
same,IC50,second compound 0.1 µM,> 10 µM
same,IC50,second compound 0.316 µM,> 10 µM
same,IC50,second compound 1 µM,> 10 µM
same,IC50,second compound 3.16 µM,> 10 µM
same,IC50,second compound 10 µM,> 10 µM
same,"viability, T/C",[1],114%
same,"viability, T/C",[2],85%
same,"viability, T/C",[3],101%
same,"viability, T/C",[4],93.8%
same,"viability, T/C","second compound 0.0316 µM, first compound 3.16 µM",109%
same,"viability, T/C","second compound 0.0316 µM, first compound 10 µM",97.9%
same,"viability, T/C",[5],106%
same,"viability, T/C",[6],91.4%
same,"viability, T/C",[7],98.8%
same,"viability, T/C",[8],103%
same,"viability, T/C","second compound 0.1 µM, first compound 3.16 µM",100%
same,"viability, T/C","second compound 0.1 µM, first compound 10 µM",110%
same,"viability, T/C",[9],95.2%
same,"viability, T/C",[10],96.9%
same,"viability, T/C",[11],100%
same,"viability, T/C",[12],105%
same,"viability, T/C","second compound 0.316 µM, first compound 3.16 µM",101%
same,"viability, T/C","second compound 0.316 µM, first compound 10 µM",103%
same,"viability, T/C",[13],102%
same,"viability, T/C",[14],105%
same,"viability, T/C",[15],109%
same,"viability, T/C",[16],106%
same,"viability, T/C","second compound 1 µM, first compound 3.16 µM",102%
same,"viability, T/C","second compound 1 µM, first compound 10 µM",110%
same,"viability, T/C",[17],102%
same,"viability, T/C",[18],96.5%
same,"viability, T/C",[19],108%
same,"viability, T/C",[20],98%
same,"viability, T/C","second compound 3.16 µM, first compound 3.16 µM",106%
same,"viability, T/C","second compound 3.16 µM, first compound 10 µM",113%
same,"viability, T/C",[21],107%
same,"viability, T/C",[22],101%
same,"viability, T/C",[23],107%
same,"viability, T/C",[24],113%
same,"viability, T/C","second compound 10 µM, first compound 3.16 µM",114%
same,"viability, T/C","second compound 10 µM, first compound 10 µM",107%
